One data set concerns the target T1, MaPylRS (Methanomethylophilus alvi, UniProt M9SC49, N166A/V168A).
T1 construct: gene MMALV_11280; pET32a, E. coli BL21-Gold(DE3)pLysS, Ni-NTA; for crystals 6xHis-thrombin site N-terminal, tag cut; dimer in crystal
Description: X-ray crystal structure, […] Å. The class given is binding. The settings on record: ternary complex with AMP-PNP; active site, two orientations (chains A and B).

Data set [1] concerns the molecule itself. As to the kind of experiment: crystal structure; MaFRSA with 100 mM m-CF3-2-BMA and 10 mM AMP-PNP, hanging-drop vapour diffusion at 18 °C, 10 mM Tris-HCl pH 7.4, 26% PEG 3,350; space group I4, two copies in the asymmetric unit, 1.8 Å.

As for `O=C(O)C(Cc1cccc(C(F)(F)F)c1)C(=O)O` [compound 18, m-CF3-2-BMA], the “X-ray crystal structure, 1.8 Å” value at MaPylRS is “we solved the crystal structure of MaFRSA bound to both m-CF3-2-BMA and the non-hydrolysable ATP analogue”.

B1: MaFRSA (Methanomethylophilus alvus pyrrolysyl-tRNA synthetase, MaPylRS, N166A V168A) (enzyme)
chain: MTVKYTDAQIQRLREYGNGTYEQKVFEDLASRDAAFSKEMSVASTDNEKKIKGMIANPSRHGLTQLMNDIADALVAEGFIEVRTPIFISKDALARMTITEDKPLFKQVFWIDEKRALRPMLAPNLYSVMRDLRDHTDGPVKIFEMGSCFRKESHSGMHLEEFTMLALADMGPRGDATEVLKNYISVVMKAAGLPDYDLVQEESDVYKETIDVEINGQEVCSAAVGPHYLDAAHDVHEPWSGAGFGLERLLTIREKYSTVKKGGASISYLNGAKIN
notes: Pyrrolysyl-tRNA synthetase (PylRS) of Methanomethylophilus alvus with N166A and V168A; construct GSS linker-6xHis-SSG linker-thrombin site-MaFRSA from pET32a-6xHis-thrombin-MaFRSA, tag removed with thrombin; Crystallised with m-CF3-2-benzylmalonate and AMP-PNP; source: E. coli BL21-Gold (DE3)pLysS, purified (TALON, thrombin cleavage, Superdex 200); not shown: 6xHis, N-terminal, cleaved
With B1, in data set [1], the binding result is on record as “binds”.

The record behind these values is PMC10322718, “Expanding the substrate scope of pyrrolysyl-transfer RNA synthetase enzymes to include non-α-amino acids in vitro and in vivo” (Nature Chemistry, 2023).
